Reference: patent US20240270724A1, “GALECTIN-3 INHIBITING C-GLYCOSIDES” (GLYCOMIMETICS, INC., priority 2021, published 2024)

What was measured:
[1] = target: T1, galectin-3 (Homo sapiens, UniProt P17931); experiment: Galectin-3 activity ELISA assay: inhibition of galectin-3 binding to immobilized Galβ1-3GlcNAc polymer; details: inhibition of galectin-3 binding to Galβ1-3GlcNAc polymer, average (± standard deviation) where assayed more than once
T1 construct: purchased IBL IBATGP0414
Excerpt: An inhibition assay may be used to screen for antagonists of galectin-3. For example, an assay may be performed to characterize the capability of a compound described herein to inhibit interaction of galectin-3 with a Galβ1-3GlcNAc carbohydrate structure. The inhibition assay may be a competitive binding assay, which allows the determination of IC50 values. By way of example, a Galβ1-3GlcNAc polymer may be immobilized onto a matrix; a composition may be added to reduce nonspecific binding; the immobilized Galβ1-3GlcNAc polymer may be contacted with the candidate compound in the presence of galectin-3 group under conditions and for a time sufficient to permit galectin-3 to bind to the immobilized Galβ1-3GlcNAc polymer; the immobilized Galβ1-3GlcNAc polymer may be washed; and the amount of galectin-3 bound to the immobilized Galβ1-3GlcNAc polymer may be detected. Variations of such steps can be readily and routinely accomplished by a person of ordinary skill in the art.
Galectin-3 antagonists were evaluated for their ability to inhibit binding of galectin-3 to a Galβ1-3GlcNAc carbohydrate structure. The detailed protocol was as follows. A 1 μg/mL suspension of a Galβ1-3GlcNAcβ1-3Galβ1-4GlcNAcβ-PAA-biotin polymer (Glycotech, catalog number 01-096) was prepared. A 100 μL aliquot of the polymer was added to the wells of a 96-well streptavidin-coated plate (R&D Systems, catalog number CP004). A 100 μL aliquot of 1× Tris Buffered Saline (TBS, Sigma, catalog number T5912-10X) was added to control wells. The polymer was allowed to bind to the streptavidin-coated wells for 1.5 hours at room temperature. The contents of the wells were discarded, and 200 μL of 1×TBS containing 1% bovine serum albumin (BSA) was added to each well as a blocking reagent and the plate was kept at room temperature for 30 minutes. The wells were washed three times with 1×TBS containing 0.1% BSA. A serial dilution of test compounds was prepared in a separate V-bottom plate (Corning, catalog number 3897). A 75 μL aliquot of the highest concentration of the compound to be tested was added to the first well in a column of the V-bottom plate, then 15 μL were serially transferred into 60 μL 1×TBS through the remaining wells in the column to generate a 1 to 5 serial dilution. A 60 μL aliquot of 2 μg/mL galectin-3 (IBL, catalog number IBATGP0414) was added to each well in the V-bottom plate. A 100 μL aliquot of the galectin-3 test compound mixture was transferred from the V-bottom plate into the assay plate containing the Galβ1-3GlcNAc polymer. Four sets of control wells in the assay plate were prepared in duplicate containing 1) both Galβ1-3GlcNAc polymer and galectin-3, 2) neither the polymer nor galectin-3, 3) galectin-3 only, no polymer, or 4) polymer only, no galectin-3. The plate was gently rocked for 1.5 hours at room temperature. The wells were washed four times with TBS/0.1% BSA. A 100 μL aliquot of anti-galectin-3 antibody conjugated to horse radish peroxidase (R&D Systems, from DGAL30 kit) was added to each well, and the plate was kept at room temperature for 1 hour. The wells were washed four times with TBS/0.1% BSA. A 100 μL aliquot of TMB substrate solution was added to each well. The TMB substrate solution was prepared by making a 1:1 mixture of TMB Peroxidase Substrate (KPL, catalog number 5120-0048) and Peroxidase Substrate Solution B (KPL, catalog number 5120-0037). The plate was kept at room temperature for 10 to 20 minutes. The color development was stopped by adding 100 uL 10% phosphoric acid (RICCA Chemical Co., catalog number 5850-16). The absorbance at 450 nm (A450) was measured using a FlexStation 3 plate reader (Molecular Devices). Plots of A450 versus test compound concentration and IC50 determinations were made using GraphPad Prism 6. The number of assays run (n) for each compound is recorded in the following table.

[2] = target: T2, carbohydrate recognition domain of human galectin-3 (Galectin-3-CRD) (Homo sapiens, UniProt P17931); experiment: Galectin-3 activity microscale thermophoresis assay; format: binding; details: label-free MST, 20 nM galectin-3-CRD; average of all assays (± standard deviation), each assay in triplicate
T2 construct: The carbohydrate recognition domain of human galectin-3 (Servesto Galectin-3-CRD) was diluted; purchased Servesto
Procedure: The carbohydrate recognition domain of human galectin-3 (Servesto Galectin-3-CRD) was diluted with PBS+0.1% F127 to 40 nM. Separately, a 40 uM stock of Compound 45 in DMSO was diluted down to 4 uM in PBS+0.1% F127 and serially diluted in sixteen steps using a dilution factor of 1 to 2 in 10% DMSO+PBS+0.1% F127. To each sample in the serial dilution of Compound 45, 10 ul of 40 nM Galectin-3-CRD was added, yielding final concentrations of 20 nM galectin-3-CRD and 5% DMSO+PBS+0.1% F127. NT.LabelFree Zero background Standard Treated Capillaries were filled with the prepared solutions then loaded into the Monolith NT Label-Free MST instrument. The reaction was measured with 100% excitation power of LED and medium (40%) MST power. Binding curves and Kd values were generated using MO affinity analysis. Each assay was run in triplicate. Some compounds were subjected to more than one assay run in triplicate.

T2 sequence (P17931 118-248 limits assumed): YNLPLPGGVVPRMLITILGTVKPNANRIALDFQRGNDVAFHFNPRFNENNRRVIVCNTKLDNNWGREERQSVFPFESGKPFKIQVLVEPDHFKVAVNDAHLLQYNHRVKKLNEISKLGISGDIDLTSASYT
T1 sequence (P17931 whole entry): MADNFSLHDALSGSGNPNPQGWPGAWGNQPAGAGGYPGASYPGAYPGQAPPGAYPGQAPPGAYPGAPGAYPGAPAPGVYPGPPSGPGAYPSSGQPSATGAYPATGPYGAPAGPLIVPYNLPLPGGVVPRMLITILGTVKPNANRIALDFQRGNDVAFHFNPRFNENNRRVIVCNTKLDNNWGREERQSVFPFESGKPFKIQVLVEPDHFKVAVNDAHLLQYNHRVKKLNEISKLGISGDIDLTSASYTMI

With [2H]C([2H])([2H])OC1C(n2cc(-c3cc(F)c(F)c(F)c3)nn2)[C@@H](O)C(CO)O[C@H]1[C@H](OCc1ccc(Cl)c(F)c1)C(=O)NC(C)C (stereo partly shown) [Compound 90, reference compound] the IC50 [1] was 1190 nM and the Kd [2] was 25 nM.
COC1C(n2cc(-c3cc(F)c(F)c(F)c3)nn2)[C@@H](O)C(CO)O[C@H]1[C@H](OCc1ccc(Cl)cc1)C(=O)OC(C)C (stereo partly shown) [Compound 87, reference compound] was tested, and the IC50 [1] was 724 nM and the Kd [2] was 20 nM.
COCCCNC(=O)[C@@H](OCc1ccc(Br)cc1)[C@@H]1OC(CO)[C@H](O)C(n2cc(-c3cc(F)cc(F)c3)nn2)C1OC (stereo partly shown) [Compound 21] showed an IC50 [1] of 474 nM and a Kd [2] of 33 nM.
[2H]C([2H])([2H])OC1C(n2cc(-c3cc(F)c(F)c(F)c3)nn2)[C@@H](O)C(CO)O[C@H]1[C@H](OCc1ccc(Br)cc1)C(=O)NC1CC1(F)F (stereo partly shown) [Compound 62] gave an IC50 [1] of 826 nM and a Kd [2] of 11 nM.
COC1C(n2cc(-c3cc(F)c(F)c(F)c3)nn2)[C@@H](O)C(CO)O[C@H]1[C@H](OCc1ccc(Br)cc1)C(=O)NCCO (stereo partly shown) [Compound 70] showed an IC50 [1] of 192 nM and a Kd [2] of 20 nM.
Molecule [2H]C([2H])([2H])OC1C(n2cc(-c3cc(F)c(F)c(F)c3)nn2)[C@@H](O)C(CO)O[C@H]1[C@H](OCc1ccc(Br)cc1)C(=O)N[C@H]1C[C@H]1F (stereo partly shown) [Compound 65] has an IC50 [1] of 364 nM and a Kd [2] of 13 nM.
With [2H]C([2H])([2H])OC1C(n2cc(-c3cc(F)c(F)c(F)c3)nn2)[C@@H](O)C(CO)O[C@H]1[C@H](OCc1ccc(Br)cc1)C(=O)NC([2H])(C([2H])([2H])[2H])C([2H])([2H])[2H] (stereo partly shown) [Compound 46] the IC50 [1] was 228 nM and the Kd [2] was 2.9 nM.
COCCCN(C)C(=O)[C@@H](OCc1ccc(Br)cc1)[C@@H]1OC(CO)[C@H](O)C(n2cc(-c3cc(F)cc(F)c3)nn2)C1OC (stereo partly shown) [Compound 22] showed an IC50 [1] of 1490 nM and a Kd [2] of 83 nM.
CCNC(=O)[C@@H](OCc1ccc(Br)cc1)[C@@H]1OC(CO)[C@H](O)C(n2cc(-c3cc(F)c(F)c(F)c3)nn2)C1OC (stereo partly shown) [Compound 69] gave an IC50 [1] of 269 nM and a Kd [2] of 32 nM.
Molecule [2H]C([2H])([2H])OC1C(n2cc(-c3cc(F)c(F)c(F)c3)nn2)[C@@H](O)C(CO)O[C@H]1[C@H](OCc1ccc(Cl)cc1)C(=O)NC(C)C (stereo partly shown) [Compound 88, reference compound] has an IC50 [1] of 416 nM and a Kd [2] of 67 nM.
COCCCNC(=O)[C@@H](OCc1ccc(Br)cc1)[C@@H]1OC(CO)[C@H](O)C(n2cc(-c3cc(F)cc(F)c3)nn2)C1O (stereo partly shown) [Compound 35] was tested, and the IC50 [1] was 391 nM and the Kd [2] was 21 nM.
CNC(=O)[C@@H](OCc1ccc(Br)cc1)[C@@H]1OC(CO)[C@H](O)C(n2cc(-c3cc(F)c(F)c(F)c3)nn2)C1OC (stereo partly shown) [Compound 19] was tested, and the IC50 [1] was 448 nM and the Kd [2] was 23 nM.
[2H]C([2H])([2H])OC1C(n2cc(-c3cc(F)c(F)c(F)c3)nn2)[C@@H](O)C(CO)O[C@H]1[C@H](OCc1ccc(Br)cc1)C(=O)NC(C)(C)C (stereo partly shown) [Compound 48] showed an IC50 [1] of 972 nM and a Kd [2] of 46 nM.
Work on CC(C)OC(=O)[C@@H](OCc1ccc(Br)cc1)[C@@H]1OC(CO)[C@H](O)C(n2cc(-c3cc(F)c(F)c(F)c3)nn2)C1O (stereo partly shown) [Compound 27] yielded an IC50 [1] of 173 nM and a Kd [2] of 26 nM.
[2H]C([2H])([2H])OC1C(n2cc(-c3cc(F)c(F)c(F)c3)nn2)[C@@H](O)C(CO)O[C@H]1[C@H](OCc1ccc(Br)cc1)C(=O)N(C)C (stereo partly shown) [Compound 68] showed an IC50 [1] of 709 nM and a Kd [2] of 87 nM.
[2H]C([2H])([2H])OC1C(n2cc(-c3cc(F)c(F)c(F)c3)nn2)[C@@H](O)C(CO)O[C@H]1[C@H](OCc1ccc(Br)cc1)C(=O)NC1CNC1 (stereo partly shown) [Compound 63] was tested, and the IC50 [1] was 51 nM and the Kd [2] was 22 nM.
CC(C)OC(=O)[C@@H](OCc1ccc(Cl)cc1)[C@@H]1OC(CO)[C@H](O)C(n2cc(-c3cc(F)c(F)c(F)c3)nn2)C1O (stereo partly shown) [Compound 86, reference compound] gave an IC50 [1] of 184 nM and a Kd [2] of 0.4 nM.
With COCCCNC(=O)[C@@H](OCc1ccc(Cl)cc1)[C@@H]1OC(CO)[C@H](O)C(n2cc(-c3cc(F)c(F)c(F)c3)nn2)C1OC (stereo partly shown) [Compound 85, reference compound] the IC50 [1] was 397 nM and the Kd [2] was 12 nM.
In the case of [2H]C([2H])([2H])OC1C(n2cc(-c3cc(F)c(F)c(F)c3)nn2)[C@@H](O)C(CO)O[C@H]1[C@H](OCc1ccc(Br)cc1)C(=O)NC1(CO)CC1 (stereo partly shown) [Compound 75], the IC50 [1] is reported as 938 nM and the Kd [2] is reported as 21 nM.
[2H]C([2H])([2H])OC1C(n2cc(-c3cc(F)c(F)c(F)c3)nn2)[C@@H](O)C(CO)O[C@H]1[C@H](OCc1ccc(Br)cc1)C(=O)NC(C)C (stereo partly shown) [Compound 45] was tested, and the IC50 [1] was 171 nM and the Kd [2] was 8.9 nM.
Molecule COC1C(n2cc(-c3cc(F)c(F)c(F)c3)nn2)[C@@H](O)C(CO)O[C@H]1[C@H](OCc1ccc(Br)cc1)C(=O)NC(CF)CF (stereo partly shown) [Compound 72] has an IC50 [1] of 197 nM and a Kd [2] of 9 nM.
With [2H]C([2H])([2H])OC1C(n2cc(-c3cc(F)c(F)c(F)c3)nn2)[C@@H](O)C(CO)O[C@H]1[C@H](OCc1ccc(Br)cc1)C(=O)NC1COC1 (stereo partly shown) [Compound 64] the IC50 [1] was 236 nM and the Kd [2] was 18 nM.
In the case of [2H]C([2H])([2H])OC1C(n2cc(-c3cc(F)c(F)c(F)c3)nn2)[C@@H](O)C(CO)O[C@H]1[C@H](OCc1ccc(Br)c(F)c1)C(=O)NC(C)C (stereo partly shown) [Compound 61], the IC50 [1] is reported as 771 nM and the Kd [2] is reported as 10 nM.
